Laboratory results from patent US12064448B2, “Methods for reducing bioavailability and absorption of ingested substances” (Nanyang Technological University, priority 2017, dated 2024).

Tested on: pancreatic lipase
Assay: 3-phase simulated digestion, pH-stat titration of fatty acids released in small intestinal phase
Format: biochemical
Conditions: heavy cream, 13.3% fat, orlistat 4.8 mg/ml
Description: Corn oils was purchased from Sigma, Inc. These aforementioned fat food models were combined with nanocellulose or other control fibers including psyllium husk (Sigma) and wheat dextrin (Sigma) or the lipase inhibitor orlistat (Sigma). To combine test materials with cream, water, cream and the test material were combined to achieve the desired final concentrations of each, and the mixture was vortexed for 30 seconds. To combine test fibers with corn oil, the oil and water components were first combined and homogenized at high speed for 1 minute. Fibers or orlistat were then added to the emulsion and the mixture was vortexed for 30 seconds.
In vivo simulated digestion was performed using a 3-phase (mouth, stomach, small intestine) method. Briefly, in the mouth phase of the gastrointestinal tract (GIT) simulator, the nano-enabled food was mixed with a simulated saliva fluid and incubated at 37° C. for 10 seconds. The resultant mouth digesta was then combined and incubated with a simulated gastric fluid and incubated for 2 hours at 37° C. on an orbital shaker to complete the stomach phase. […] Free fatty acid (FFA) at the beginning of the intestinal phase (before addition of lipase) and in the final digesta was measured using a fluorometric assay kit (Cayman Chemical Cat #700310). […]

Compound: CCCCCCCCCCC[C@@H](C[C@@H]1OC(=O)[C@H]1CCCCCC)OC(=O)[C@H](CC(C)C)NC=O [orlistat]
- reduction of lipase activity (NaOH titrant used, percentage of total free fatty acids released): 91.5%
